These are literature values, as cited in patent US20220331377A1, “DELIVERY VEHICLE FOR IN SITU DELIVERING OF PHARMACEUTICAL AGENTS” (priority 2019, published 2022).

The structures appear in SMILES notation.

The subject of the data set is C. difficile. The settings on record: patients; P=0.05; cited from earlier work.

`CN[C@H](CC(C)C)C(=O)N[C@H]1C(=O)N[C@@H](CC(N)=O)C(=O)N[C@H]2C(=O)N[C@H]3C(=O)N[C@H](C(=O)N[C@H](C(=O)O)c4cc(O)cc(O)c4-c4cc3ccc4O)[C@H](O)c3ccc(c(Cl)c3)Oc3cc2cc(c3O[C@@H]2O[C@H](CO)[C@@H](O)[C@H](O)[C@H]2O[C@H]2C[C@](C)(N)[C@H](O)[C@H](C)O2)Oc2ccc(cc2Cl)[C@H]1O` [vancomycin]: the “recurrent C. difficile disease (RCDD)” value is on record as 50%.
